Consider five compounds from patent US20170166598A1, “HETEROARYL COMPOUNDS FOR KINASE INHIBITION” (ARIAD PHARMACEUTICALS, INC., priority 2014, published 2017).

pIC50: −log10 of the molar value.

Holding throughout (assay type): cell-based
Assay [1] deals with T1, human EGFR exon 20 insertion ASV (V769_D770insASV) (Homo sapiens, UniProt P00533, INS769ASV).
T1 construct: expressed in transfected cells; host or cells: Ba/F3 (murine pro-B) cells transduced with lentivirus from pLVX-IRES puro
The experiment in a line: Ba/F3-EGFR-Exon20-ASV cell anti-proliferative assay (CellTiter 96 MTS, 72 h). Particulars: Ba/F3-EGFR-Exon20-ASV cells. The essentials: (§1)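 Viable-cell readout used absorbance at 490 nm of MTS-derived formazan, 2 h after reagent addition, following 72 h compound treatment at 37 °C, 5% CO2. Cells: puromycin-selected, IL-3-depleted Ba/F3 expressing EGFR exon 20 ASV or NPG; dosing 4-fold series from 10,000 nM.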

Assay [2] concerns the target T2, human EGFR L858R and T790M double mutation (Homo sapiens, UniProt P00533, L858R/T790M).
T2 construct: expressed in transfected cells; host or cells: Ba/F3 (murine pro-B) cells transduced with lentivirus from pLVX-IRES puro
The assay is described as follows: Ba/F3-EGFR L858R/T790M cell anti-proliferative assay (CellTiter 96 MTS, 72 h). Particulars: Ba/F3-EGFR L858R/T790M cells. As to the method: An expression vector, pLVX-IRES puro (Clontech) coding for human EGFR L858R and T790M double mutation, was transfected into HEK293 cells by the Trans-Lentiviral ORF Packaging System (Thermo Scientific), to produce virus encoding EGFR L858R and T790M double mutations. Ba/F3 (DSMZ) cells maintained in RPMI 1640 medium supplemented with 10% fetal bovine serum, 200 μM L-glutamine/l 200 μg/mL penicillin/200 μg/mL streptomycin (Life Technology) and 10 ng/mL IL-3 (R&D system), were infected by EGFR L858R and T790M double mutation virus and subsequently selected by puromycin (Life Technology) selection and IL-3 depletion. […] The anti-proliferative activity of compounds was determined as follows: BaF3-EGFR L858R/T790M cells seeded in 96 well plates (2500 cells/well) were treated with test compound (dissolved in DMSO) at a series of concentrations (4-fold dilution, top concentration: 10,000 nM). The plates were incubated for 72 h in a 37° C. incubator with 5% CO2, and the number of viable cells in each well were measured indirectly by CellTiter 96® Aqueous One Solution Cell Proliferation Assay (Promega; this assay is a colorimetric method for determining the number of viable cells through measurement of their metabolic activity by detection of enzymatic conversion of tetrazolium salts into blue formazan derivatives). Reagent (20 μL) was added into each well, and the plates were returned to the incubator for 2 h. The absorbance in each well was then measured at 490 nm using an Envision plate reader (Perkin Elmer).

Assay [3] has as its target T3, human EGFR exon 20 insertion NPG (H773_V774insNPG) (Homo sapiens, UniProt P00533, INS772GNP).
T3 construct: expressed in transfected cells; host or cells: Ba/F3 (murine pro-B) cells transduced with lentivirus from pLVX-IRES puro
The experiment in a line: Ba/F3-EGFR-Exon20-NPG cell anti-proliferative assay (CellTiter 96 MTS, 72 h). Particulars: Ba/F3-EGFR-Exon20-NPG cells. The gist of the method:
as §1

Assay [4] has as its target T4, Her2 exon 20 YVMA insertion (A775_G776ins YVMA) (Homo sapiens, UniProt P04626, INS775YVMA).
T4 construct: expressed in transfected cells; host or cells: Ba/F3 (murine pro-B) cells transduced with lentivirus from pLVX-IRES puro
The experiment in a line: Ba/F3-Her2 Exon20 YVMA cell anti-proliferative assay (CellTiter 96 MTS, 72 h). Particulars: Ba/F3-Her2 Exon20 YVMA cells. The essentials:
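Anti-proliferation: compound series (top 10,000 nM, 4-fold steps) was applied to Ba/F3-Her2 Exon20 YVMA cells grown without IL-3 for 72 h. Viability was read colorimetrically (CellTiter 96 Aqueous One, A490, 2 h reagent incubation).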

The target in assay [5] is T5, human EGFR E746-A750 deletion and T790M Mutation (Homo sapiens, UniProt P00533, DEL746-750/T790M).
T5 construct: expressed in transfected cells; host or cells: Ba/F3 (murine pro-B) cells transduced with lentivirus from pLVX-IRES puro
T5 sequence (P00533 with tags, fused parts or gaps DEL746-750/T790M): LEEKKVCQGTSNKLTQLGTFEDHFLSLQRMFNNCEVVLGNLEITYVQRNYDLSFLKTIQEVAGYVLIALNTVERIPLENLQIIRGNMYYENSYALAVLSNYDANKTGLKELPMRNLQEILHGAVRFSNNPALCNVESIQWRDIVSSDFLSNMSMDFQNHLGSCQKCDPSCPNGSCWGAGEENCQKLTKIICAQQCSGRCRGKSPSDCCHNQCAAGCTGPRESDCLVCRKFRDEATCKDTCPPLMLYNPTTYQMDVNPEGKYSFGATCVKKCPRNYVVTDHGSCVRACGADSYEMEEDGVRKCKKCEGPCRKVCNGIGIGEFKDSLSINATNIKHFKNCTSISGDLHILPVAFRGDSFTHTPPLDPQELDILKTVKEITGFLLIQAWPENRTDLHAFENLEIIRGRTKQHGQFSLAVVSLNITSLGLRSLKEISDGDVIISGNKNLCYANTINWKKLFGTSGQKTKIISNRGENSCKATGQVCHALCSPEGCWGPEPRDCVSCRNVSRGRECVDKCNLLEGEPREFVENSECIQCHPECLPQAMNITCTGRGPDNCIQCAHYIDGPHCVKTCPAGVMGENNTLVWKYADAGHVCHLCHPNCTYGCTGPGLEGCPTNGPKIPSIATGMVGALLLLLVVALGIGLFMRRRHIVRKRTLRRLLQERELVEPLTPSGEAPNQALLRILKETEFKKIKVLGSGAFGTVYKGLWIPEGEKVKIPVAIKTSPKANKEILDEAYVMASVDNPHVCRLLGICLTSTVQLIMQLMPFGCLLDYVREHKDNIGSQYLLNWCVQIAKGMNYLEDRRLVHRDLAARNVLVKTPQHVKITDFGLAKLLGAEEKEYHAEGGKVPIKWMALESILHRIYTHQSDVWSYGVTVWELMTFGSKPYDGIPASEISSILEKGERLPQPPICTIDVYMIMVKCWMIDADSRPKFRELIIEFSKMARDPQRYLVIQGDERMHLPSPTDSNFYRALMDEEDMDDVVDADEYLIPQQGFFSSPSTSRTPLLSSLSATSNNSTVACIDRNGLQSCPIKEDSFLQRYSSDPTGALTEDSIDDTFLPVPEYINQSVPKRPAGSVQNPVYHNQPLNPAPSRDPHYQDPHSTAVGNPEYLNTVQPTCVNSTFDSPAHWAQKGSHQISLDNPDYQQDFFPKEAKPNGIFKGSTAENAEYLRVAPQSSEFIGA
The assay is described as follows: Ba/F3-EGFR-Del/T790M cell anti-proliferative assay (CellTiter 96 MTS, 72 h). Particulars: Ba/F3-EGFR-Del/T790M cells. The gist of the method: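 Compound exposure: 72 h, 37 °C, 4-fold series topping at 10,000 nM. Target cells are Ba/F3 transduced with EGFR exon 19 deletion plus T790M, selected by puromycin and IL-3 withdrawal. Viable cell number inferred from MTS metabolic conversion, A490 read 2 h after reagent addition.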

T1 sequence (P00533 with tags, fused parts or gaps INS769ASV): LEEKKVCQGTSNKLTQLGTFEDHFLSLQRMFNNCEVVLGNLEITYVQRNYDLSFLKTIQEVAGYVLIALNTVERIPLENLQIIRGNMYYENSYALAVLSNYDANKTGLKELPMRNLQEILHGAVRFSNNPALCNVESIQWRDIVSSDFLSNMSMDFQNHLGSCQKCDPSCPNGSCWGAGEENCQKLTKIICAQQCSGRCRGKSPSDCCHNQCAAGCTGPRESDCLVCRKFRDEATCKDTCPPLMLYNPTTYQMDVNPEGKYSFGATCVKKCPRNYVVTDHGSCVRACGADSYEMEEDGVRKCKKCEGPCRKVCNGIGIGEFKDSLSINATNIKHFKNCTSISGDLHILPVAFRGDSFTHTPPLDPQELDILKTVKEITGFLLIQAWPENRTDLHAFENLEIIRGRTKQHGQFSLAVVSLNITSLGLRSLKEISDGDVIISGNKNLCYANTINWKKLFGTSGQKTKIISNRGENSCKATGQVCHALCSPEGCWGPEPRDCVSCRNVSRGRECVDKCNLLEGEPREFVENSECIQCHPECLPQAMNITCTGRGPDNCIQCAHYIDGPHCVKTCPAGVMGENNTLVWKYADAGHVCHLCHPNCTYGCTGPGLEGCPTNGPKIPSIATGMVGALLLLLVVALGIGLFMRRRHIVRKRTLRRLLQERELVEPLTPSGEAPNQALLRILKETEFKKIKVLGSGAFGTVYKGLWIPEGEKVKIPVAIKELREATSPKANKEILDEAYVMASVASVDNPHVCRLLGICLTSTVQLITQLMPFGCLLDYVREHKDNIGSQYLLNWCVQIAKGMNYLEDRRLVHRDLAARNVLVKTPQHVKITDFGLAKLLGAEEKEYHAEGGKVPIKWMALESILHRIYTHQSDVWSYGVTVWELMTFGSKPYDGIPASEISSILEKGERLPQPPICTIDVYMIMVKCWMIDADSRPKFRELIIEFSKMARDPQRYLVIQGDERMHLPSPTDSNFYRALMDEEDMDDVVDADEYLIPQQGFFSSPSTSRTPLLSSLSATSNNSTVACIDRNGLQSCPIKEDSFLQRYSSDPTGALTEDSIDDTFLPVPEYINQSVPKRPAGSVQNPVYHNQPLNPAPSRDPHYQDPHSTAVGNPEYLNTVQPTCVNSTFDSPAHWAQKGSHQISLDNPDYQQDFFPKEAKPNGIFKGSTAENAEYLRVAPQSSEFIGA
T3 sequence (P00533 with tags, fused parts or gaps INS772GNP): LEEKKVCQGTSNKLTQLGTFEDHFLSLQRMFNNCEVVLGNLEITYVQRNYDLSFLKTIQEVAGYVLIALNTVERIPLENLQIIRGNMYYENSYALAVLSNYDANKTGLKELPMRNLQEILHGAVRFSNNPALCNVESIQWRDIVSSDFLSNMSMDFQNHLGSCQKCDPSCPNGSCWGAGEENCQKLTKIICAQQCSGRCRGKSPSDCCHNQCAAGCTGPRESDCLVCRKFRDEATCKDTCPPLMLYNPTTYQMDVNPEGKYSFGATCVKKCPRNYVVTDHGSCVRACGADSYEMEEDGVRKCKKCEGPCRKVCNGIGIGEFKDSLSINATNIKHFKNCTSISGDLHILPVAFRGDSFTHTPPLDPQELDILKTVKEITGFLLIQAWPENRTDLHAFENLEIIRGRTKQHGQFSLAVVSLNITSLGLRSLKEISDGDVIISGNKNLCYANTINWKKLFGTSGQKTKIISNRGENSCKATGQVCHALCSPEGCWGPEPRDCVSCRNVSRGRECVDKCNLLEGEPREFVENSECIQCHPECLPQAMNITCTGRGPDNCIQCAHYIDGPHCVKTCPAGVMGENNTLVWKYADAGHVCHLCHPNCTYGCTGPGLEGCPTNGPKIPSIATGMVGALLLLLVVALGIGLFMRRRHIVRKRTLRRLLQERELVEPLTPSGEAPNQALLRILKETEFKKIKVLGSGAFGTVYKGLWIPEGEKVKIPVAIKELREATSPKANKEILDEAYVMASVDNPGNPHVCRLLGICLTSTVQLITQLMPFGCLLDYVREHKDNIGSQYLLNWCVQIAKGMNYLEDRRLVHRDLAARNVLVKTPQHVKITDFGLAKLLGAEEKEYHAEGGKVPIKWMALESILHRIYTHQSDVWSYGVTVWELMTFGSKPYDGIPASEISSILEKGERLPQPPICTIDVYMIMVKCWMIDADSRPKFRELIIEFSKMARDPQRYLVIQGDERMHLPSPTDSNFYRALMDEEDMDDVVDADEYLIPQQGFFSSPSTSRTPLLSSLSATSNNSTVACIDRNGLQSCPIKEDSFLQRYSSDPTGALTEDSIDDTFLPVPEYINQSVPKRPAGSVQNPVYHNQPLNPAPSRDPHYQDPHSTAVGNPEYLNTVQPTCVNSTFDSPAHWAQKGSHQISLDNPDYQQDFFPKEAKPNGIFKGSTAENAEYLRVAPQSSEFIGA
T4 sequence (P04626 with tags, fused parts or gaps INS775YVMA): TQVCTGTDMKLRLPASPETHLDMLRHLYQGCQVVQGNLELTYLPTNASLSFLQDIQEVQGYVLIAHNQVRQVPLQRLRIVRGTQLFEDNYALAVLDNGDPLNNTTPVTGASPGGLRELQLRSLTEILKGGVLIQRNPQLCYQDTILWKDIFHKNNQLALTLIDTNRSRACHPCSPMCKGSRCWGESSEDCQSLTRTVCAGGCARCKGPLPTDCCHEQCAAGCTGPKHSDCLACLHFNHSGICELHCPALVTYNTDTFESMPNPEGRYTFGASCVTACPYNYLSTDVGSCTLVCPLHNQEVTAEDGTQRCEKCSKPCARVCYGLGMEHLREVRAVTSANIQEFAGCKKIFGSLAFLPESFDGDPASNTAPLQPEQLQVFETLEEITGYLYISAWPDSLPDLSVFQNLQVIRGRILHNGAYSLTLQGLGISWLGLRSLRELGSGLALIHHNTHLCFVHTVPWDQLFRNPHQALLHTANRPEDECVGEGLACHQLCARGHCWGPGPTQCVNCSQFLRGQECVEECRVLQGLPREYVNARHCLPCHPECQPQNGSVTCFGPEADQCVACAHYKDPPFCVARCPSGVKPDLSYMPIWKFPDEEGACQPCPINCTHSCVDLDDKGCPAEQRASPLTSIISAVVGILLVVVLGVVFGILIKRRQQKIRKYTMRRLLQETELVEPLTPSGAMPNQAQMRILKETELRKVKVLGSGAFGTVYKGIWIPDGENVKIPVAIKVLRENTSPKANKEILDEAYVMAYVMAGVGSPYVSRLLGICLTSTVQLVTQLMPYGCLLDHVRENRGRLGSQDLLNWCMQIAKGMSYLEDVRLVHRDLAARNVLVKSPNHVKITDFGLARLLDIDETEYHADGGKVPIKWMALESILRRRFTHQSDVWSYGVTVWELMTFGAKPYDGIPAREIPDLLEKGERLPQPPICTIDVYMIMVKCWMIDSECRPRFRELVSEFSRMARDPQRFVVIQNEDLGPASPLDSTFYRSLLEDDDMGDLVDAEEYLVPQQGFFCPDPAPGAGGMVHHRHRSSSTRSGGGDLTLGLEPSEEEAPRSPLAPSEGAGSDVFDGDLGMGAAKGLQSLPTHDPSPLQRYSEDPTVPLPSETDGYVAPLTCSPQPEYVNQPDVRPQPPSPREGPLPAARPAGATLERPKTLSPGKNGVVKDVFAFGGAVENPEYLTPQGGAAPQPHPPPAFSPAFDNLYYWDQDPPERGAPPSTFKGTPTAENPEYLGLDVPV

With `C=CC(=O)Nc1cc(Nc2ncc(C#N)c(-c3cn4c5c(cccc35)CCC4)n2)c(OC)cc1N(C)CCN(C)C(C)C` [Example 26, N-(5-((5-cyano-4-(5,6-dihydro-4H-pyrrolo[3,2,1-ij]quinolin-1-yl)pyrimidin-2-yl)amino)-2-((2-(isopropyl(methyl)amino)ethyl)(methyl)amino)-4-methoxyphenyl)acrylamide], the pIC50 in assay [1], in assay [3] and in assay [4] was above 7.00 throughout. Further, the “EGFR exon 21 L858R and exon 20 T790M mutation IC50” value in assay [2] is “A (IC50 value for the indicated mutant below about 100 nM)”. Moreover, the “EGFR exon 19 deletion and exon 20 T790M mutation IC50” value in assay [5] is on record as “A (IC50 value for the indicated mutant below about 100 nM)”.

Take `C=CC(=O)Nc1cc(Nc2ncc(-c3nnc(C)o3)c(-c3cn4c5c(cccc35)CCC4)n2)c(OC)cc1N(C)CCN(C)C` [Example 107]: the pIC50 in assay [1], in assay [3] and in assay [4] was above 7.00 in each case. In addition, the “EGFR exon 21 L858R and exon 20 T790M mutation IC50” value in assay [2] is given as “A (IC50 value for the indicated mutant below about 100 nM)”. For the same compound, in assay [5], the “EGFR exon 19 deletion and exon 20 T790M mutation IC50” value is “A (IC50 value for the indicated mutant below about 100 nM)”.

On to `C=CC(=O)Nc1cc(Nc2ncc(CCC(N)=O)c(-c3cn4c5c(cccc35)CCC4)n2)c(OC)cc1N(C)CCN(C)C` [Example 40, N-(5-((5-(3-amino-3-oxopropyl)-4-(5,6-dihydro-4H-pyrrolo[3,2,1-ij]quinolin-1-yl)pyrimidin-2-yl)amino)-2-((2-(dimethylamino)ethyl)(methyl)amino)-4-methoxyphenyl)acrylamide], for which the pIC50 was 6.00 to 6.30 in assay [1], 6.30 to 7.00 in assay [3] and below 6.00 in assay [4]. Also, in assay [2], the “EGFR exon 21 L858R and exon 20 T790M mutation IC50” value is recorded as “B (IC50 value for the indicated mutant between about 100 to about 500 nM)”. The “EGFR exon 19 deletion and exon 20 T790M mutation IC50” value in assay [5] is listed as “A (IC50 value for the indicated mutant below about 100 nM)”.

Regarding `C=CC(=O)Nc1cc(Nc2ncc(C(=O)NCCOC)c(-c3cn4c5c(cccc35)CCC4)n2)c(OC)cc1N(C)CCN(C)C` [Example 47, 2-((5-acrylamido-4-((2-(dimethylamino)ethyl)(methyl)amino)-2-methoxyphenyl)amino)-4-(5,6-dihydro-4H-pyrrolo[3,2,1-ij]quinolin--yl)-N-(2-methoxyethyl)pyrimidine-5-carboxamide], the pIC50 is 6.30 to 7.00 in assay [1], above 7.00 in assay [3] and 6.00 to 6.30 in assay [4]. Moreover, the “EGFR exon 21 L858R and exon 20 T790M mutation IC50” value in assay [2] was “C (IC50 value for the indicated mutant between greater than about 500 to about 1 μM)”. Moreover, in assay [5], the “EGFR exon 19 deletion and exon 20 T790M mutation IC50” value is listed as “B (IC50 value for the indicated mutant between about 100 to about 500 nM)”.

On to `C=CC(=O)Nc1cc(Nc2ncc(CCC3CCOC3)c(-c3cn4c5c(cccc35)CCC4)n2)c(OC)cc1N(C)CCN(C)C` (stereo not shown) [Example 36, N-(5-((4-(5,6-dihydro-4H-pyrrolo[3,2,1-ij]quinolin-1-yl)-5-(2-(tetrahydrofuran-3-yl)ethyl)pyrimidin-2-yl)amino)-2-((2-(dimethylamino)ethyl)(methyl)amino)-4-methoxyphenyl)acrylamide], for which the results for the pIC50 in assay [1], in assay [3] and in assay [4] were 6.30 to 7.00, above 7.00 and 6.30 to 7.00, respectively. Besides, the “EGFR exon 21 L858R and exon 20 T790M mutation IC50” value in assay [2] was “B (IC50 value for the indicated mutant between about 100 to about 500 nM)”. For the same compound, in assay [5], the “EGFR exon 19 deletion and exon 20 T790M mutation IC50” value is “A (IC50 value for the indicated mutant below about 100 nM)”.
